Measurements published in paper PMC10118748 (Science translational medicine, 2022).

Key:
PC3 tumors [1] = settings: cohort 2, ATC + durvalumab, 1 or 0.1 nmol/dose
murine PD-L1 = settings: ref [47]; cited from earlier work
PC3 tumors [2] = settings: 14 days after treatment, 1 nmol + ATC (fig. S10)
cynomolgus PD-L1 = settings: flow staining of SDGF-PDL1B1G1-expressing cells
[3] = 10 mM DTT vs PBS
[4] = ref [58]; cited from earlier work

Compound: durvalumab
- tumor growth suppression (PC3 tumors [1]): No tumor growth suppression
- murine cross-reactivity (murine PD-L1): non-murine-cross-reactive
- ATC infiltration and activation in tumor (human CD8, granzyme B) (PC3 tumors [2]): recruitment of trace numbers of ATCs infiltrating the tumor

Compound: CC[C@H](C)[C@@H]1NC(=O)[C@H](CCCNC(=N)N)NC(=O)[C@H](CCC(=O)O)NC(=O)[C@H](C)NC(=O)[C@@H]2CSSC[C@H](NC(=O)[C@H](Cc3c[nH]cn3)NC(=O)[C@H](C)NC(=O)[C@H](CCCNC(=N)N)NC(=O)CNC(=O)[C@H]([C@@H](C)CC)NC(=O)[C@H]([C@@H](C)O)NC(=O)[C@H](Cc3ccc(O)cc3)NC(=O)[C@H](CO)NC(=O)[C@H](CCCCN)NC1=O)C(=O)N[C@@H](CO)C(=O)NCC(=O)N[C@@H](CCC(N)=O)C(=O)N[C@@H](Cc1ccc(O)cc1)C(=O)N[C@@H](Cc1ccccc1)C(=O)N[C@@H](CC(=O)O)C(=O)N[C@@H](C(C)C)C(=O)N[C@@H](Cc1c[nH]c3ccccc13)C(=O)N[C@@H](CCCCN)C(=O)N[C@H]1CSSC[C@H](NC(=O)[C@H](Cc3c[nH]cn3)NC(=O)[C@H](C(C)C)NC(=O)[C@H](CCCCN)NC(=O)[C@@H](NC(=O)[C@H](CC(=O)O)NC(=O)[C@H](CCC(=O)O)NC(=O)[C@H](CCC(=O)O)NC(=O)[C@H](CO)NC(=O)CN)CSSC[C@@H](C(=O)N[C@@H](C)C(=O)N[C@@H](C)C(=O)N3CCC[C@H]3C(=O)O)NC(=O)[C@H](Cc3c[nH]cn3)NC(=O)[C@H](CC(=O)O)NC(=O)[C@H](CC(C)C)NC1=O)C(=O)N[C@@H](C(C)C)C(=O)N[C@@H](CCCCN)C(=O)N[C@@H](CCC(=O)O)C(=O)N[C@@H](Cc1c[nH]c3ccccc13)C(=O)N[C@@H](C)C(=O)N[C@@H](C)C(=O)N[C@@H](Cc1ccc(O)cc1)C(=O)N[C@@H](CCCCN)C(=O)N[C@@H](C)C(=O)N2 [PDL1B1G1]
- binding to cynomolgus PD-L1 relative to murine PD-L1 (cynomolgus PD-L1): stronger than seen with murine PD-L1
- RP-HPLC mobility shift upon reduction [3]: substantial mobility shift

Compound: atezolizumab
- linked adverse effect [4]: Type 1 diabetes has been reported
